Measurements from patent US9562031B1, “Phenethyldihydrobenzodioxolones and methods of use” (Sequoia Sciences, Inc., priority 2015, dated 2017).
Like-named read-outs stand apart in the source and are kept apart here.

Experiments:
[1] = test system: NCI-H460 (large cell lung carcinoma) cells; experiment: antiproliferation assay (72 h, CELLTITER 96), NCI-H460; type: cell-based, human; conditions: Homo sapiens, read-out: NCI-H460 IC50
Method: (§1) All of the compounds shown in Table 3-Table 8 below were prepared synthetically as described in EXAMPLE I. The compounds were tested for their ability to inhibit the proliferation of human cancer cells in vitro as described in the following paragraph. Table 3-Table 8 list the IC50 values in the M14 and NCI-H460 human cancer cell lines. IC50 is defined as the concentration of compound necessary to achieve 50% of the maximum growth inhibition.
(§2) For the antiproliferation assay, NCI-H460 (large cell lung carcinoma) or M14 (amelanotic melanoma) cells were grown in RPMI-1640 with 10% FBS supplemented with L-glutamine and HEPES. Cells were seeded into 96-well plates at 5×10^2 to 5×10^4 cells/well and allowed to adhere overnight; the medium was then removed. A stock solution of test compound in DMSO was diluted in medium to generate a series of working solutions. Aliquots (100 μl) of the working solutions were then added to the appropriate test wells to expose cells to the final concentrations of compound in a total volume of 100 μl. Seven different concentrations were tested, with 2-5 wells per concentration. Camptothecin was used as a positive control; wells containing vehicle without compound were used as negative controls. Plates were kept for 72 h in a 37° C., 5% CO2 incubator. After incubation, viable cells were detected with the CELLTITER 96 AQueous Non-Radioactive Cell Proliferation Assay (Promega), and IC50 values were determined using GraphPad Prism 5 software.

[2] = test system: M14 (amelanotic melanoma) cells; experiment: antiproliferation assay (72 h, CELLTITER 96), M14; type: cell-based, human; conditions: Homo sapiens
Method: as §1, §2

Compound | IC50 ([1]; NCI-H460, Table 6) | IC50 ([2]; Table 6) | IC50 ([1]; NCI-H460, Table 7) | IC50 ([2]; Table 7)
C=CC[C@H]1C[C@]2([C@H](C)Cc3ccc(OC)cc3C)OCOC2=CC1=O [Compound 51, (6S,7aR)-6-allyl-7a-((R)-1-(4-methoxy-2-methylphenyl)propan-2-yl)-7,7a-dihydrobenzo[d][1,3]dioxol-5(6H)-one] | 780 nM | 280 nM |  | 
C=CC[C@H]1C[C@]2(C(C)Cc3ccc(OC)cc3OC)OCOC2=CC1=O (stereo partly drawn) [Compound 52, (6S,7aR)-6-allyl-7a-(1-(2,4-dimethoxyphenyl)propan-2-yl)-7,7a-dihydrobenzo[d][1,3]dioxol-5(6H)-one] | 15000 nM | 15000 nM |  | 
C=CC[C@H]1C[C@]2([C@@H](C)Cc3ccc(OC)cc3OC(C)=O)OCOC2=CC1=O [Compound 53, 2-((S)-2-((3aR,5S)-5-allyl-6-oxo-3a,4,5,6-tetrahydrobenzo[d][1,3]dioxol-3a-yl)propyl)-5-methoxyphenyl acetate] | 2300 nM | 270 nM |  | 
C=CC[C@H]1C[C@]2([C@H](C)Cc3ccc(OC)cc3Cl)OCOC2=CC1=O [Compound 54, (6S,7aR)-6-allyl-7a-((R)-1-(2-chloro-4-methoxyphenyl)propan-2-yl)-7,7a-dihydrobenzo[d][1,3]dioxol-5(6H)-one] | 320 nM | 45 nM |  | 
C=CC[C@H]1C[C@]2(C(C)Cc3cc(F)c(OC)c(F)c3)OCOC2=CC1=O (stereo partly drawn) [Compound 55, (6S,7aR)-6-allyl-7a-(1-(3,5-difluoro-4-methoxyphenyl)propan-2-yl)-7,7a-dihydrobenzo[d][1,3]dioxol-5(6H)-one] | 3800 nM | 3300 nM |  | 
COc1cc(F)c(CC(C)[C@]23C[C@H](C)C(=O)C=C2OCO3)cc1F (stereo partly drawn) [Compound 56, (6S,7aR)-7a-(1-(2,5-difluoro-4-methoxyphenyl)propan-2-yl)-6-methyl-7,7a-dihydrobenzo[d][1,3]dioxol-5(6H)-one] |  |  | 430 nM | 140 nM
CC[C@H]1C[C@]2([C@@H](C)Cc3cc(F)c(OC)cc3F)OCOC2=CC1=O [Compound 57] |  |  | 200 nM | 140 nM
CC[C@H]1C[C@]2([C@H](C)Cc3cc(F)c(OC)cc3F)OCOC2=CC1=O [Compound 58] |  |  | 440 nM | 290 nM

Further lines, results first:

IC50 ([1]; NCI-H460, Table 6) | IC50 ([2]; Table 6) | IC50 ([1]; NCI-H460, Table 7) | IC50 ([2]; Table 7) | Compound
 |  | 170 nM | 58 nM | CCC[C@H]1C[C@]2([C@@H](C)Cc3cc(O)c(OC)cc3F)OCOC2=CC1=O [Compound 59]
 |  | 67 nM | 5.9 nM | CCC[C@H]1C[C@]2([C@H](C)Cc3cc(O)c(OC)cc3F)OCOC2=CC1=O [Compound 60]
 |  | 73 nM | 200 nM | C#CC[C@H]1C[C@]2([C@@H](C)Cc3ccc(OC)cc3F)OCOC2=CC1=O [Compound 62, (6S,7aR)-7a-((S)-1-(2-fluoro-4-methoxyphenyl)propan-2-yl)-6-(prop-2-yn-1-yl)-7,7a-dihydrobenzo[d][1,3]dioxol-5(6H)-one]
 |  | 220 nM | 140 nM | C=C(F)C[C@H]1C[C@]2([C@@H](C)Cc3cc(F)c(OC)cc3F)OCOC2=CC1=O [Compound 64, (6R,7aR)-7a-((S)-1-(2,5-difluoro-4-methoxyphenyl)propan-2-yl)-6-(2-fluoroallyl)-7,7a-dihydrobenzo[d][1,3]dioxol-5(6H)-one]
 |  | 1200 nM | 640 nM | COC[C@H]1C[C@]2([C@@H](C)Cc3cc(O)c(OC)cc3F)OCOC2=CC1=O [Compound 65, (6R,7aR)-7a-((S)-1-(2-fluoro-5-hydroxy-4-methoxyphenyl)propan-2-yl)-6-(methoxymethyl)-7,7a-dihydrobenzo[d][1,3]dioxol-5(6H)-one]
 |  | 2600 nM | 1600 nM | COc1cc(F)c(C[C@H](C)[C@]23C[C@H](Cc4ccccc4)C(=O)C=C2OCO3)cc1O [Compound 66, (6S,7aR)-6-benzyl-7a-((S)-1-(2-fluoro-5-hydroxy-4-methoxyphenyl)propan-2-yl)-7,7a-dihydrobenzo[d][1,3]dioxol-5(6H)-one]
